Calls of active or inactive are those of the source.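 How the source made its calls: active means compounds giving half or more protection of infected cells from virus-caused growth loss, again on retest; inactive means the rest.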
Test system: CEM cells HIV-1 protection, formazan growth assay
Assay: NCI AIDS Antiviral Assay
Settings: for IC50: measured here: growth of uninfected CEM cells
Outline: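 Human CEM cells, uninfected and HIV-1-infected, received five drug concentrations, and growth was read by soluble formazan assay. Compounds giving at least 50% protection were retested; reproducible 100% protection defined confirmed active.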

| Compound | EC50 | IC50 | outcome |
| --- | --- | --- | --- |
| CC(NC(=O)C(N)CC(=O)O)NC(=O)N1CCOCC1 (stereo not drawn) | > 200 µM | > 200 µM |  |
| CC(C)(C)C1CCC2c3c([nH]c4ccccc34)C3C(=O)N(c4cccc(Cl)c4)C(=O)C3C2C1 (stereo not drawn) | > 200 µM | 11 µM |  |
| O=C(Nc1ccc(/C=C/c2ccc(NC(=O)c3cc(S(=O)(=O)O)c4cccnc4c3O)cc2S(=O)(=O)O)c(S(=O)(=O)O)c1)Nc1ccc(/C=C/c2ccc(NC(=O)c3cc(S(=O)(=O)O)c4cccnc4c3O)cc2S(=O)(=O)O)c(S(=O)(=O)O)c1 | 5.5 µM | 50.1 µM |  |
| CCOC(=O)c1ccc(CSc2ccccc2C(=O)O)cc1 | > 16.6 µM | > 16.6 µM |  |
| NC(=O)N/N=C1/CCN2CCCc3cccc1c32 | > 200 µM | > 200 µM |  |
| COCCCNC(=O)C1=C(C)NC(C)=C(C(=O)NCCCOC)C1 | > 200 µM | 53.7 µM |  |
| CCOC(=O)CC1=NC(=Nc2cc(Cl)ccc2Cl)SC1 | > 77.6 µM | > 77.6 µM |  |
| COC1CC(C)(NC(C)=O)C2OC(c3ccccc3)OCC2O1 (stereo not drawn) | > 200 µM | > 200 µM |  |
| CC(C)C1CN1CC(O)Cn1ccnc1[N+](=O)[O-] (stereo not drawn) | > 200 µM | > 200 µM |  |
| CCCCCCCCCCCCCCCCCCOCC(CCP(=O)(CP(=O)(O)O)Oc1ccccc1)OCCCCCCCCCCCCCCCCCC (stereo not drawn) |  |  | inactive |
| COC(=O)[C@@H]1CN(C(=O)CCc2ccccc2)C(=O)N1C(=O)OCc1ccccc1 | > 200 µM | 97.7 µM |  |
| COc1ccc2nc3c([N+](=O)[O-])ccc4c3c(c2c1)NCCN4CCO | > 200 µM | 0.398 µM |  |
| CC(C)(C)c1onc2c1C(=O)c1ccccc1-2 | > 200 µM | 117 µM |  |
| CCO/C=N/C1=C(C#N)SC2=N/C(=C\c3ccccc3)C(=O)N21 | > 200 µM | 77.6 µM |  |
| Nc1nn2c(=O)c3ccccc3nc2s1 | > 200 µM | 89.1 µM |  |
| Cc1nc2[nH]c(=O)n(OS(=O)(=O)c3ccccc3)c(=O)c2s1 | > 200 µM | 35.5 µM |  |
| CC(C)C(=O)/C=C/c1ccccc1 | > 200 µM | 57.5 µM |  |
| Cc1sc(/N=C/C2=C(O)CC(C)(C)CC2=O)nc1-c1ccccc1 | > 200 µM | 64.6 µM |  |
| N=C(N)SSC(=N)N | 70.8 µM | > 100 µM |  |
| C(=Nc1ccc(C2=NCCN2)cc1)c1ccc(C=Nc2ccc(C3=NCCN3)cc2)cc1 | > 200 µM | 11.7 µM |  |
| CCCCNc1cc(Nc2ccc(Br)cc2)nc(N)n1 | > 2 µM | 1.07 µM |  |
| COc1cc(C2C=C(c3ccccc3)Oc3cc4c(cc32)OCO4)cc(OC)c1OC (stereo not drawn) | > 2 µM | 0.631 µM |  |

| Compound | EC50 | IC50 | outcome |
| --- | --- | --- | --- |
| O=C(NCCCNCCCNC(=O)c1cc(-c2ccccc2)nc2ccccc12)c1cc(-c2ccccc2)nc2ccccc12 | > 200 µM | 2.82 µM |  |
| Nc1ccc(Oc2ccc(S(=O)(=O)c3ccc(Oc4ccc(N)cc4N)cc3)cc2)c(N)c1 | > 200 µM | 120 µM |  |
| O=c1oc(-c2cccc(-c3nc4c(c(=O)o3)CCS4)c2)nc2c1CCS2 | > 200 µM |  |  |
| NCC1CCC(C(=O)O)CC1 (stereo not drawn) | > 200 µM | > 200 µM |  |
| COc1ccc2c(c1)C(=O)C1NC(=O)NC(=O)C1(Br)N2 (stereo not drawn) | > 200 µM | > 200 µM |  |
| NC1C2(CCCCCC2)NC(=O)C12CCCCCC2 (stereo not drawn) |  |  | inactive |
| CC(=O)OC1(C#N)CC2OC1C1N=NN(C(=O)OC(C)(C)C)C21 (stereo not drawn) | > 155 µM | 14.8 µM |  |
| O=C(OCc1ccccc1)N1CCNCCNCCN(C(=O)OCc2ccccc2)CCNCC1 | > 200 µM | 112 µM |  |
| C=C1C(=O)O[C@H]2CC(C)C3C(O)CC(O)[C@@]3(C)C[C@H]12 (stereo partly drawn) | > 933 µM | 6.03 µM |  |
| O=C(c1ccc(Cl)cc1)N(C(=O)N1CCC(c2ccccc2)CC1)c1ccccc1 | > 200 µM | 11.2 µM |  |
| O=C(CCc1n[nH]c(=S)o1)Nc1ccc(Cl)cc1Cl | > 31.6 µM | > 31.6 µM |  |
| CCOC(=O)c1nc2c(OC)nn(O)cc-2c1Br | > 794 µM | > 794 µM |  |
| Cc1nc(N(C(C)C)C(C)C)c(C(C)C)o1 | > 200 µM | > 200 µM |  |
| NC(=O)C(=CNC(=S)Nc1ccc(Cl)c(Cl)c1)C(N)=O | > 200 µM | 30.2 µM |  |
| Cn1cc(NC(=O)c2cc(NC(=O)c3cc(NC(=O)/C=C/C(=O)O)cn3C)cn2C)cc1C(=O)NCCC(=N)N | > 100 µM | 89.1 µM |  |
| OC(CCN1CC2CCC(CC2)C1)(Cc1ccccc1)c1cccs1 (stereo not drawn) | > 200 µM | 47.9 µM |  |
| CC(OCc1ccccc1)C(NC(=O)C1CSSCC(NC(=O)C(Cc2ccccc2)NC(=O)OCc2ccccc2)C(=O)NC(Cc2ccccc2)C(=O)NC(Cc2cn(C=O)c3ccccc23)C(=O)NC(CCCCNC(=O)OCc2ccccc2)C(=O)NC(C(C)OCc2ccccc2)C(=O)N1)C(N)=O (stereo not drawn) | > 100 µM | 4.47 µM |  |
| CCN(CC)c1cc2oc(=O)cc(C)c2cc1NC(=O)c1cc([N+](=O)[O-])cc([N+](=O)[O-])c1 | > 49 µM | > 49 µM |  |
| O=c1c(O)c(-c2cc(O)c(O)c(O)c2)oc2cc(O)cc(O)c12 | > 282 µM | 13.8 µM |  |
| CCCCNC(=S)/N=C/c1c(O)c2ccccc2oc1=O | > 200 µM | 182 µM |  |
| CC(=O)Oc1ccc2c(c1)Oc1cc(OC(C)=O)ccc1C21OC(=O)c2ccccc21 | > 200 µM |  |  |
| O=C(CCCn1cnc([N+](=O)[O-])n1)NCCn1ccnc1[N+](=O)[O-] | > 200 µM | > 200 µM |  |

| Compound | EC50 | IC50 | outcome |
| --- | --- | --- | --- |
| C=CCCCCCCCCCCCC1CCC(CC)N1 (stereo not drawn) | > 240 µM | > 240 µM |  |
| Cc1cc(N(CCC#N)CCC#N)ccc1/C=C(\NC(=O)/C=C/c1ccccc1)NC(=O)Nc1ccccc1C | > 9.77 µM | > 9.77 µM |  |
| CN(C)c1ccc(/C=C2\CCc3ccccc3C2=O)cc1Br | > 10.7 µM | > 10.7 µM |  |
| c1cc(-c2cn[nH]c2)cc(-c2cn[nH]c2)c1 |  |  | inactive |
| CC1OC23CCCCC2C(C#N)(C#N)C1(C#N)C(=N)O3 (stereo not drawn) | > 200 µM | 4.27 µM |  |
| O=C(O)CCCCCCCCCCCCCCC(=O)O | > 18.2 µM | > 18.2 µM |  |
| O=C(NC(CO)CO)c1ccc2cc(C(=O)N3CC(CCl)c4ccc([N+](=O)[O-])cc43)[nH]c2c1 (stereo not drawn) | > 200 µM | 53.7 µM |  |
| CC(C)CC(NC(=O)OCC[P+](c1ccccc1)(c1ccccc1)c1ccccc1)C(=O)O (stereo not drawn) | > 200 µM | 9.12 µM |  |
| O=C(CCN(C(=O)O)S(=O)(=O)c1ccc(NC(=O)c2ccccc2)cc1)NC1CCCCC1 | > 525 µM | > 525 µM |  |
| Brc1ccc2c(-c3nc(-c4c[nH]c5ccccc45)cs3)c[nH]c2c1 | > 100 µM | 6.46 µM |  |
| COc1ccc(-c2cc(C(=O)Nc3cccc(C(F)(F)F)c3)[nH]c(=S)n2)cc1 | > 162 µM | > 162 µM |  |
| O=C(CCCN1CCC2(CC1)C(=NC1CCCCC1)NC(=O)N2c1ccccc1)c1ccc(F)cc1 | > 200 µM | 93.3 µM |  |
| Cc1ccc(S(=O)(=O)N/N=C2\C=C[C@]3(CC2)C(=O)N(C)c2ccccc23)cc1 | > 200 µM | 102 µM |  |
| O=c1c(O)c(-c2ccccc2)n(O)c2ccc(Cl)cc12 | > 18.2 µM | > 18.2 µM |  |
| CCOC(=O)C1C2c3ccccc3C(c3ccccc32)C1C(=O)OCC (stereo not drawn) | > 200 µM | > 200 µM |  |
| Cc1cccc(N(CCC#N)S(=O)(=O)c2ccccc2)c1 | > 200 µM | 110 µM |  |
| CN(C)CCN1C(=O)C2(C)C3CCC(O3)C2(C)C1=O (stereo not drawn) | 141 µM | 170 µM |  |
| COC(OC)c1cc2c(cc1C(=O)[C@@]13CCC[C@@H]1NC(=O)O3)OCO2 |  |  | inactive |
| NCCSS(=O)(=O)CCN | > 363 µM |  |  |
| O=C(OCc1ccccc1)C(Cc1ccccc1)N(Cc1ccccc1)Cc1ccccc1 (stereo not drawn) | > 200 µM | > 200 µM |  |
| COC(=O)/C(Cl)=C1/CC1COCc1ccccc1 (stereo not drawn) | > 186 µM | 107 µM |  |
| CN1C(=O)c2cccc3c([N+](=O)[O-])ccc(c23)C1=O | > 20.4 µM | 7.76 µM |  |

| Compound | EC50 | IC50 | outcome |
| --- | --- | --- | --- |
| O=S(=O)(Nc1ccccc1)c1ccc(-c2c3nc(c(-c4ccc(S(=O)(=O)Nc5ccccc5)cc4)c4ccc([nH]4)c(-c4ccc(S(=O)(=O)Nc5ccccc5)cc4)c4nc(c(-c5ccc(S(=O)(=O)Nc6ccccc6)cc5)c5ccc2[nH]5)C=C4)C=C3)cc1 | > 100 µM | > 100 µM |  |
| [Cl][Pd][Cl].[NH-]CCN1CC1 | > 200 µM | 12.3 µM |  |
| OC1c2ccccc2C2(O)C1C(c1ccccc1)C(c1ccccc1)C2(O)c1ccccc1 (stereo not drawn) |  |  | inactive |
| FC1(F)[Se]C2C3CCC(C3)C2C1(F)F (stereo not drawn) | > 200 µM | > 200 µM |  |
| CCO/N=C(/CC)c1ccc(Br)s1 | > 200 µM | 102 µM |  |
| OC(Cc1cnnc2ccccc12)C(Cl)(Cl)Cl (stereo not drawn) | > 200 µM | 70.8 µM |  |
| CC1=C2CC[C@@]3(C)C(=CCC3O)C2(C)CCC1=O (stereo partly drawn) |  |  | inactive |
| COc1cccc(C2c3cc4c(cc3OC3COC(=O)C32)OCO4)c1OC (stereo not drawn) | > 200 µM | 120 µM |  |
| C/C(=N/NC(=O)C[N+](C)(C)C)C(CN(C)C)C(=O)Nc1ccccc1 (stereo not drawn) | > 13.5 µM | > 13.5 µM |  |
| CC(=O)NC(CCCCNC(=O)OC(C)(C)C)C(=O)O (stereo not drawn) | > 200 µM | > 200 µM |  |
| O=c1c(-c2ccc3c(c2)OCO3)coc2c3c(ccc12)OCO3 |  |  | inactive |
| CC(=O)C1CC[C@@H]2[C@H](CC[C@]3(C)[C@@H](O)CC[C@@H]23)[C@H]1C(=O)O (stereo partly drawn) | > 200 µM | > 200 µM |  |
| NC1(C(=O)O)CCCC1c1ccccc1 (stereo not drawn) | > 6.61 µM | > 6.61 µM |  |
| O=C1N[C@@H]2c3c(Br)sc(Br)c3C(=O)[C@@H]2O1 | > 200 µM | 0.759 µM |  |
| Cc1cccc(C)c1N1C(=O)C(=O)C(c2nc3ccccc3s2)/C(=N\N)C1=O (stereo not drawn) |  |  | inactive |
| CCC1=C(C)c2cc3[n-]c(cc4nc(cc5[n-]c(cc1n2)c(C)c5CCC(=O)OC)C(CCC(=O)OC)=C4C)c(C)c3CC.[Cu+2] |  |  | inactive |
| COc1ccc2c(c1)CCC(c1ccccc1)=C2c1ccc(OCCN2CCCC2)cc1 | > 200 µM | 3.72 µM |  |
| O=C(CC(=O)N1N=C(N(c2ccccc2)c2ccccc2)CC1c1ccccc1)Nc1ccccc1 (stereo not drawn) |  |  | inactive |
| CCCCCCCCCCCc1c(O)c(=O)c2c(oc3c(=O)c(CCCCCCCCCCC)c(O)c(=O)c3n2-c2ccc(N(C)C)cc2)c1=O | > 2.04 µM | > 2.04 µM |  |
| c1nc2c([nH]1)CCNC2c1ccc2c(c1)OCO2 (stereo not drawn) |  |  | inactive |
